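Each compound was tested at five concentrations against cells in 96-well plates for 48 hours. GI50 marks 50% less growth. TGI: total growth inhibition.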 Where a SMILES comes first, the peptide text is derived from it. [ ]: non-standard residue; d: D form. pGlu = O=C1CC[CH](C(=O)O)N1

For 23 molecules, TGI and GI50 results are on record in PubChem BioAssay (NCI).

Test systems include SK-OV-3 ovarian; PC-3 prostate; OVCAR-8 ovarian; MOLT-4 leukemia; MCF7 breast; SF-295 CNS; SK-MEL-28 melanoma; SNB-75 CNS.
Holding throughout (assay): NCI anticancer screen, dose series, 48 h

`CN1CCN(/C(N)=C(\C#N)C(=O)Nc2ccccc2)CC1`: the TGI in the experiment with SK-OV-3 ovarian, in the experiment on PC-3 prostate, in the experiment with OVCAR-8 ovarian, with MOLT-4 leukemia, in the experiment on MCF7 breast and with SF-295 CNS was more than 100 µM in each case. Further, the TGI in the experiment with SK-MEL-28 melanoma and with SNB-75 CNS was more than 100 µM in each case.
Consider `CCNc1cc2c3c(c1)CCCN3CCC2`, for which the TGI in the experiment on SK-OV-3 ovarian stood at 37.3 µM; in the experiment on PC-3 prostate, 35.6 µM; in the experiment with OVCAR-8 ovarian, 56.4 µM; in the experiment on MOLT-4 leukemia it was 50.6 µM; with MCF7 breast it was 62.9 µM; with SF-295 CNS, 32.3 µM. The values for the TGI with SK-MEL-28 melanoma and in the experiment with SNB-75 CNS were 87.5 µM and 32.7 µM, respectively.
For the molecule `O=[N+]([O-])c1ccc2nc(/C=C(\O)c3ccccc3)c(/C=C(\O)c3ccccc3)nc2c1`, the TGI in the experiment on SK-OV-3 ovarian is more than 75.4 µM; in the experiment with PC-3 prostate, more than 100 µM; in the experiment on OVCAR-8 ovarian, 42 µM; in the experiment with MOLT-4 leukemia it was 40.5 µM; with MCF7 breast it was more than 100 µM; with SF-295 CNS it was 48.3 µM. In addition, the TGI was more than 100 µM in the experiment on SK-MEL-28 melanoma and 32.1 µM in the experiment with SNB-75 CNS. Moreover, the GI50 in the experiment with SK-MEL-28 melanoma was 8.3 µM.
Turning to `CSC1(SC)N2Cc3ccccc3N=C2C1(c1ccccc1)c1ccccc1`, the TGI with SK-OV-3 ovarian is more than 100 µM; with PC-3 prostate, more than 100 µM; in the experiment with OVCAR-8 ovarian it was more than 79.6 µM; in the experiment on MOLT-4 leukemia, more than 44.9 µM; in the experiment with MCF7 breast it was more than 87.9 µM; in the experiment on SF-295 CNS, more than 100 µM. In addition, the TGI in the experiment on SK-MEL-28 melanoma was more than 59.5 µM; in the experiment with SNB-75 CNS, more than 100 µM.
Turning to `Cc1oncc1NC1=CC(=O)C(=O)c2ccccc21`, the TGI in the experiment with SK-OV-3 ovarian was determined as 37.8 µM; in the experiment on PC-3 prostate, 10 µM; in the experiment on OVCAR-8 ovarian, 11.9 µM; in the experiment with MOLT-4 leukemia it was 11.9 µM; with MCF7 breast, 9.63 µM; in the experiment with SF-295 CNS it was 20.6 µM. Besides, the TGI in the experiment with SK-MEL-28 melanoma came out at 29.2 µM; with SNB-75 CNS, 27.2 µM.
For `CC(C)(C)OC(=O)N1Cc2cc(O)ccc2C[C@H]1C(=O)O`, the TGI in the experiment on SK-OV-3 ovarian, in the experiment with PC-3 prostate, with OVCAR-8 ovarian, with MOLT-4 leukemia, in the experiment with MCF7 breast and in the experiment with SF-295 CNS was more than 100 µM throughout. Moreover, the TGI in the experiment on SK-MEL-28 melanoma and in the experiment on SNB-75 CNS was more than 100 µM each time.
In the case of `CCCCC1(N=[N+]=[N-])C(=O)C2C=CC=C3c4ccccc4N(C1=O)C32` (stereo not given), the TGI in the experiment on SK-OV-3 ovarian was more than 31.6 µM; in the experiment on PC-3 prostate, more than 31.6 µM; with OVCAR-8 ovarian it was more than 31.6 µM; with MOLT-4 leukemia, more than 31.6 µM; in the experiment with MCF7 breast, 28.1 µM; with SF-295 CNS, more than 31.6 µM. In addition, the TGI in the experiment with SK-MEL-28 melanoma was more than 100 µM; in the experiment with SNB-75 CNS, 23.1 µM.
Turning to `CO[C@H]1C[C@H](n2cc(C)c(=O)[nH]c2=O)O[C@@H]1CO`, the TGI in the experiment on SK-OV-3 ovarian, in the experiment with PC-3 prostate, in the experiment with OVCAR-8 ovarian, with MOLT-4 leukemia, with MCF7 breast and in the experiment on SF-295 CNS was more than 100 µM each time. Moreover, the TGI with SK-MEL-28 melanoma and in the experiment on SNB-75 CNS was more than 100 µM throughout.
As to `CC1C2CC(CC2N)C1(C)C` (stereo not given), the TGI in the experiment on SK-OV-3 ovarian, in the experiment on PC-3 prostate, with OVCAR-8 ovarian, in the experiment on MOLT-4 leukemia, in the experiment on MCF7 breast and in the experiment with SF-295 CNS was more than 100 µM each time. Further, the TGI with SK-MEL-28 melanoma and in the experiment with SNB-75 CNS was more than 100 µM in each case.
As to `NC(=O)c1ncn2c(=O)n(CCl)nnc12`, the TGI in the experiment with SK-OV-3 ovarian, with PC-3 prostate, in the experiment with OVCAR-8 ovarian, in the experiment with MOLT-4 leukemia, in the experiment with MCF7 breast and in the experiment with SF-295 CNS was more than 100 µM throughout. The TGI in the experiment on SK-MEL-28 melanoma and with SNB-75 CNS was more than 100 µM in each case.
As for `CC(O)c1cc2c(s1)C(=O)c1scc(C(C)O)c1C2=O` (stereo not given), the TGI with SK-OV-3 ovarian turned out to be 7.76 µM; in the experiment on PC-3 prostate, 3.48 µM; in the experiment on OVCAR-8 ovarian it was 0.857 µM; in the experiment with MOLT-4 leukemia, 5.4 µM; in the experiment on MCF7 breast it was 3.01 µM; in the experiment with SF-295 CNS, 0.364 µM. Besides, the TGI stood at 0.62 µM with SK-MEL-28 melanoma and 0.767 µM in the experiment on SNB-75 CNS.
Regarding `COc1cc(/C=C2\N=C(C)N(n3c(-c4ccccc4)nc4ccccc4c3=O)C2=O)cc(OC)c1OC`, the TGI in the experiment on SK-OV-3 ovarian, in the experiment on PC-3 prostate, with OVCAR-8 ovarian, in the experiment with MOLT-4 leukemia, in the experiment with MCF7 breast and with SF-295 CNS was more than 100 µM throughout. Further, the TGI in the experiment on SK-MEL-28 melanoma and in the experiment on SNB-75 CNS was more than 100 µM in each case.
As for `COc1ccc(-c2nnc(-c3ccncc3)o2)cc1`, the TGI in the experiment on SK-OV-3 ovarian, in the experiment with PC-3 prostate, in the experiment on OVCAR-8 ovarian, in the experiment on MOLT-4 leukemia, in the experiment with MCF7 breast and in the experiment with SF-295 CNS was more than 100 µM in each case. The TGI in the experiment on SK-MEL-28 melanoma and in the experiment with SNB-75 CNS was more than 100 µM throughout.
Turning to `COc1cc(/C=c2/c3ccccc3n3c2cc(-c2ccccc2)[n+]3C)cc(OC)c1OC`, the TGI with SK-OV-3 ovarian is 23.2 µM; in the experiment on PC-3 prostate, 14.6 µM; in the experiment with OVCAR-8 ovarian it was 12.9 µM; in the experiment on MOLT-4 leukemia it was more than 64.9 µM; in the experiment on MCF7 breast, 20.6 µM; in the experiment with SF-295 CNS, 19.2 µM. Moreover, the TGI in the experiment on SK-MEL-28 melanoma stood at 19.1 µM; in the experiment with SNB-75 CNS it was 15.2 µM.
`CCC/C(Cl)=N\OC(=O)Nc1ccc(F)c([N+](=O)[O-])c1`: the TGI in the experiment on SK-OV-3 ovarian was 78.9 µM; in the experiment with PC-3 prostate it was 28.5 µM; in the experiment on OVCAR-8 ovarian, 31.3 µM; in the experiment with MOLT-4 leukemia, 11.2 µM; with MCF7 breast, 75.5 µM; in the experiment on SF-295 CNS, more than 100 µM. The results for the TGI in the experiment on SK-MEL-28 melanoma and with SNB-75 CNS were 34.2 µM and 33 µM, respectively.
As for `CC(NC(=O)C(Cc1cnc[nH]1)NC(=O)C1CCC(=O)N1)C(N)=O` (stereo not drawn) ([pGlu]-His-Ala-NH2; configuration not given here), the TGI with SK-OV-3 ovarian, with PC-3 prostate, in the experiment on OVCAR-8 ovarian, in the experiment on MOLT-4 leukemia, in the experiment on MCF7 breast and in the experiment on SF-295 CNS was more than 100 µM each time. Moreover, the TGI in the experiment on SK-MEL-28 melanoma and in the experiment with SNB-75 CNS was more than 100 µM throughout.
As to `O=C1c2ccccc2-c2nnc(-c3ccc(Cl)cc3)cc21`, the TGI in the experiment with SK-OV-3 ovarian, in the experiment on PC-3 prostate, in the experiment with OVCAR-8 ovarian, with MOLT-4 leukemia, with MCF7 breast and in the experiment with SF-295 CNS was more than 10 µM in each case. In addition, the TGI with SK-MEL-28 melanoma and with SNB-75 CNS was more than 10 µM each time.
Take `O=C(CCc1ccc(O)c(O)c1)NCCc1ccc(O)c(O)c1`: the TGI in the experiment on SK-OV-3 ovarian is more than 100 µM; in the experiment with PC-3 prostate, more than 100 µM; in the experiment on OVCAR-8 ovarian, 32.4 µM; in the experiment with MOLT-4 leukemia, more than 100 µM; in the experiment on MCF7 breast, 45.4 µM; in the experiment with SF-295 CNS, more than 100 µM. In addition, the TGI with SK-MEL-28 melanoma and in the experiment with SNB-75 CNS was more than 100 µM in each case.
On to `Cc1cc2c(cc1-c1cc3c(cc1C)C(C(C)C)=C(O)C(=O)/C3=C\Nc1c(C)n(C)n(-c3ccccc3)c1=O)/C(=C/Nc1c(C)n(C)n(-c3ccccc3)c1=O)C(=O)C(O)=C2C(C)C`, for which the TGI in the experiment with SK-OV-3 ovarian, in the experiment on PC-3 prostate, with OVCAR-8 ovarian, in the experiment with MOLT-4 leukemia, in the experiment with MCF7 breast and in the experiment with SF-295 CNS was more than 100 µM each time. The TGI with SK-MEL-28 melanoma and in the experiment with SNB-75 CNS was more than 100 µM each time.
Consider `N#CCSc1c(-c2ccccc2)c(=O)n(-c2ccccc2)c(=S)n1-c1ccccc1`, for which the TGI in the experiment with SK-OV-3 ovarian, in the experiment on PC-3 prostate, in the experiment with OVCAR-8 ovarian, with MOLT-4 leukemia, in the experiment on MCF7 breast and with SF-295 CNS was more than 100 µM throughout. Also, the TGI in the experiment on SK-MEL-28 melanoma and with SNB-75 CNS was more than 100 µM throughout.
In the case of `COc1ccc(N2C(N)=C(C#N)C(C#N)(C#N)C2c2cccc([N+](=O)[O-])c2)cc1` (stereo not given), the TGI in the experiment with SK-OV-3 ovarian is 38.9 µM; with PC-3 prostate, 32.4 µM; with OVCAR-8 ovarian, 32.8 µM; in the experiment on MOLT-4 leukemia, 25.7 µM; in the experiment on MCF7 breast, 40.2 µM; with SF-295 CNS, 39.5 µM. In addition, the TGI in the experiment on SK-MEL-28 melanoma was found to be 23.6 µM; in the experiment on SNB-75 CNS, 35.1 µM.
For `COc1ccc(-c2nnc(CCCCCCCCc3nnc(-c4ccc(OC)cc4)n3N)n2N)cc1`, the TGI in the experiment on SK-OV-3 ovarian is more than 100 µM; with PC-3 prostate, more than 100 µM; in the experiment on OVCAR-8 ovarian, more than 31.6 µM; in the experiment with MOLT-4 leukemia, more than 100 µM; with MCF7 breast, more than 100 µM; in the experiment with SF-295 CNS, more than 100 µM. In addition, the TGI in the experiment with SK-MEL-28 melanoma was more than 100 µM; in the experiment on SNB-75 CNS it was more than 66.4 µM.
As for `COC(=O)C(Cc1ccccc1)NC(=O)c1ccc(CNC(=S)NCc2cccc(CNC(=S)NCc3ccccc3)c2)cc1` (stereo not given), the TGI with SK-OV-3 ovarian, in the experiment on PC-3 prostate, with OVCAR-8 ovarian, in the experiment with MOLT-4 leukemia, in the experiment on MCF7 breast and in the experiment with SF-295 CNS was more than 62.5 µM throughout. For the same molecule, the TGI in the experiment with SK-MEL-28 melanoma and in the experiment on SNB-75 CNS was more than 62.5 µM throughout.
